For experiment [1], the system named is porcine coronary artery. Type of experiment: cell-based. The conditions noted are these: for Constrictor activity (Relative potency): ET-1 = 100; for Maximum Constriction (% 60 mM KCl): normalized to constriction response to 60 mM KCl. On the procedure: Each of helical strips 2 mm×15 mm prepared from the coronary right ramus circumflexus from which the adventitial connective tissues and the endothelial cells were removed was set to each of 4 ml organ baths. Its tension was detected by a force displacement transducer UL-10GR (Minebea), and recorded by a polygraph (NEC Sanei). The organ baths were maintained at 37° C., and filled with a Krebs-Henseleit solution (composition:118 mM NaCl, 4.7 mM KCl, 2.5 mM CaCl2, 1.2 mM KH2 PO4, 25.0 mM NaHCO3, 1.2 mM MgSO4, 10.0 mM glucose) gassed with 95% O2 and 5% CO2.
A tension of 1.25 to 1.5 g was applied to each of the strips, followed by equilibration for 1.5 hours. 60 mM KCl was repeatedly applied thereto at intervals of 30 minutes until the constriction response became constant. After additional equilibration for 1.5 hours, a sample for assay was given. The constriction of the strips was normalized by the constriction response of the individual strips to 60 mM KCl and statistically processed.
(2) As to the antagonist property or the agonist property of the peptide derivatives of present invention to endothelin, the affinity for an endothelin receptor and the constrictor activity to porcine coronary smooth muscles (according to the method described in (1) described above) were assayed. The affinity for the receptor was assayed by the following method.

The subject of experiment [2] is endothelin receptor. The experiment can be described thus: Assay of affinity for receptor (I125-ET-1 binding to porcine myocardial membrane fraction). The conditions noted are these: ET-1 = 100. On the procedure:
A membrane fraction prepared from the porcine heart was diluted to 0.15 mg/ml by using a buffer solution [PBS (pH 7.4) containing 0.5 mM CaCl2, 1.0 mM MgCl2, 0.02% NaN3, 0.1% BSA (fraction V, Sigma), 0.1 mM PMSF and 0.1 μg/ml pepstatin (binding buffer)] for assay, and 100 μl of the resulting suspension of the membrane fraction was poured into each assay tube to use for assay. To this suspension of the membrane fraction were added 2 μl of an endothelin-1 solution labeled with 5 μM radioactive iodine. Further, 3 μl of a test peptide solution was added thereto, followed by maintenance at a temperature of 25° C. for 1 hour. Then, the resulting suspension was diluted with 900 μl of the buffer solution for assay cooled with ice, and thereafter separated into a supernatant and a precipitate by centrifugation at 12,000×g for 10 minutes. Cell membranes and an endothelin receptor embedded therein were contained in the precipitate, and radioactive iodine-labeled endothelin combined with the receptor was also recovered in the precipitate. Accordingly, the amount of radioactive iodine-labeled endothelin combined with the endothelin receptor was determined by measuring the amount of radioactive iodine contained in the precipitate with a gamma-ray counter. Compounds in which the affinity for the endothelin receptor is high and the maximum constriction is not high are antagonists. Contrary to this, compounds in which the affinity for the endothelin receptor is high and the maximum constriction is high are agonists.

Where a SMILES comes first, the peptide text is derived from it. Bridges are numbered along the chain shown (N, C = ends).

As to `CC[C@H](C)[C@H](NC(=O)[C@H](CC(=O)O)NC(=O)[C@H](CC(C)C)NC(=O)[C@H](Cc1c[nH]cn1)NC(=O)[C@@H]1CSSC[C@H](N)C(=O)N[C@@H](CO)C(=O)N[C@H]2CSSC[C@H](NC(=O)[C@H](CCC(=O)O)NC(=O)[C@H](CCCCN)NC(=O)[C@H](CC(=O)O)NC(=O)[C@H](CCSC)NC(=O)[C@H](CC(C)C)NC(=O)[C@H](CO)NC(=O)[C@H](CO)NC2=O)C(=O)N[C@@H](C(C)C)C(=O)N[C@@H](Cc2ccc(O)cc2)C(=O)N[C@@H](Cc2ccccc2)C(=O)N1)C(=O)N[C@H](C(=O)N[C@@H](Cc1c[nH]c2ccccc12)C(=O)O)[C@@H](C)CC` [ET-1, endothelin-1, reference compound], in experiment [1] (read-out: EC50 (% KCL), concentration which induces 50% of the constriction due to 60 mM KCl), the EC50 was 1.6 nM.

With `CC[C@H](C)[C@H](NC(=O)[C@H](CC(=O)O)NC(=O)[C@H](CC(C)C)NC(=O)[C@H](Cc1c[nH]cn1)NC(=O)[C@@H]1CSSC[C@H](N)C(=O)N[C@@H](CO)C(=O)N[C@@H](Cc2c[nH]c3ccccc23)C(=O)N[C@@H](CO)C(=O)N[C@@H](CO)C(=O)N[C@@H](CC(C)C)C(=O)N[C@@H](CCSC)C(=O)N[C@@H](CC(=O)O)C(=O)N[C@@H](CCCCN)C(=O)N[C@@H](CCC(=O)O)C(=O)N[C@@H](C)C(=O)N[C@@H](C(C)C)C(=O)N[C@@H](Cc2ccc(O)cc2)C(=O)N[C@@H](Cc2ccccc2)C(=O)N1)C(=O)N[C@H](C(=O)N[C@@H](Cc1c[nH]c2ccccc12)C(=O)O)[C@@H](C)CC` [Example 13, [Trp^3, Ala^11]-ET-1] (H-CSWSSLMDKEAVYFCHLDIIW-OH; disulfide 1-15), the “Receptor binding activity (Relative potency)” value in experiment [2] came to 2.5. In experiment [1], the “Constrictor activity (Relative potency)” value was < 0.1 and the “Maximum Constriction (% 60 mM KCl)” value worked out at 6 % 60 mM KCl.

In the case of `CC[C@H](C)[C@H](NC(=O)[C@H](C)NC(=O)[C@H](CC(C)C)NC(=O)[C@H](Cc1c[nH]cn1)NC(=O)[C@@H]1CSSC[C@H](N)C(=O)N[C@@H](CO)C(=O)N[C@@H](C)C(=O)N[C@@H](CO)C(=O)N[C@@H](CO)C(=O)N[C@@H](CC(C)C)C(=O)N[C@@H](CCSC)C(=O)N[C@@H](CC(=O)O)C(=O)N[C@@H](CCCCN)C(=O)N[C@@H](CCC(=O)O)C(=O)N[C@@H](C)C(=O)N[C@@H](C(C)C)C(=O)N[C@@H](Cc2ccc(O)cc2)C(=O)N[C@@H](Cc2ccccc2)C(=O)N1)C(=O)N[C@H](C(=O)N[C@@H](Cc1c[nH]c2ccccc12)C(=O)O)[C@@H](C)CC` [Example 21, [Ala^3,11,18]-ET-1] (H-CSASSLMDKEAVYFCHLAIIW-OH; disulfide 1-15), in experiment [2], the “Receptor binding activity (Relative potency)” value was 1.59. In experiment [1], the “Constrictor activity (Relative potency)” value was < 0.1 and the “Maximum Constriction (% 60 mM KCl)” value stood at 6 % 60 mM KCl.

For `CC[C@H](C)[C@H](NC(=O)[C@H](CC(C)C)NC(=O)[C@H](CC(C)C)NC(=O)[C@H](Cc1c[nH]cn1)NC(=O)[C@@H]1CSSC[C@H](N)C(=O)N[C@@H](CO)C(=O)N[C@@H](C)C(=O)N[C@@H](CO)C(=O)N[C@@H](CO)C(=O)N[C@@H](CC(C)C)C(=O)N[C@@H](CCSC)C(=O)N[C@@H](CC(=O)O)C(=O)N[C@@H](CCCCN)C(=O)N[C@@H](CCC(=O)O)C(=O)N[C@@H](C)C(=O)N[C@@H](C(C)C)C(=O)N[C@@H](Cc2ccc(O)cc2)C(=O)N[C@@H](Cc2ccccc2)C(=O)N1)C(=O)N[C@H](C(=O)N[C@@H](Cc1c[nH]c2ccccc12)C(=O)O)[C@@H](C)CC` [Example 22, [Ala^3,11, Leu^18]-ET-1] (H-CSASSLMDKEAVYFCHLLIIW-OH; disulfide 1-15), the “Receptor binding activity (Relative potency)” value in experiment [2] came to 1.27. Also, in experiment [1], the “Constrictor activity (Relative potency)” value is listed as < 0.1 and the “Maximum Constriction (% 60 mM KCl)” value amounted to 3 % 60 mM KCl.

On to `CC[C@H](C)[C@H](NC(=O)[C@H](Cc1ccccc1)NC(=O)[C@H](CC(C)C)NC(=O)[C@H](Cc1c[nH]cn1)NC(=O)[C@@H]1CSSC[C@H](N)C(=O)N[C@@H](CO)C(=O)N[C@@H](C)C(=O)N[C@@H](CO)C(=O)N[C@@H](CO)C(=O)N[C@@H](CC(C)C)C(=O)N[C@@H](CCSC)C(=O)N[C@@H](CC(=O)O)C(=O)N[C@@H](CCCCN)C(=O)N[C@@H](CCC(=O)O)C(=O)N[C@@H](C)C(=O)N[C@@H](C(C)C)C(=O)N[C@@H](Cc2ccc(O)cc2)C(=O)N[C@@H](Cc2ccccc2)C(=O)N1)C(=O)N[C@H](C(=O)N[C@@H](Cc1c[nH]c2ccccc12)C(=O)O)[C@@H](C)CC` [Example 23, [Ala^3,11, Phe^18]-ET-1] (H-CSASSLMDKEAVYFCHLFIIW-OH; disulfide 1-15), for which the “Receptor binding activity (Relative potency)” value in experiment [2] turned out to be 1.27. Moreover, in experiment [1], the “Constrictor activity (Relative potency)” value was < 0.1 and the “Maximum Constriction (% 60 mM KCl)” value is given as 8 % 60 mM KCl.

As for `CC[C@H](C)[C@H](NC(=O)[C@H](C)NC(=O)[C@H](CC(C)C)NC(=O)[C@H](Cc1c[nH]cn1)NC(=O)[C@@H]1CSSC[C@H](N)C(=O)N[C@@H](CO)C(=O)N[C@H]2CSSC[C@H](NC(=O)[C@H](CCC(=O)O)NC(=O)[C@H](CCCCN)NC(=O)[C@H](CC(=O)O)NC(=O)[C@H](CCSC)NC(=O)[C@H](CC(C)C)NC(=O)[C@H](CO)NC(=O)[C@H](CO)NC2=O)C(=O)N[C@@H](C(C)C)C(=O)N[C@@H](Cc2ccc(O)cc2)C(=O)N[C@@H](Cc2ccccc2)C(=O)N1)C(=O)N[C@H](C(=O)N[C@@H](Cc1c[nH]c2ccccc12)C(=O)O)[C@@H](C)CC` [Example 25, [Ala^18]-ET-1] (H-CSCSSLMDKECVYFCHLAIIW-OH; disulfide 1-15, 3-11), the “Receptor binding activity (Relative potency)” value in experiment [2] came to 9.1. In addition, in experiment [1], the “Constrictor activity (Relative potency)” value came out at 7.8 and the “Maximum Constriction (% 60 mM KCl)” value was 62 % 60 mM KCl.

In the case of `CC[C@H](C)[C@H](NC(=O)[C@H](CC(C)C)NC(=O)[C@H](CC(C)C)NC(=O)[C@H](Cc1c[nH]cn1)NC(=O)[C@@H]1CSSC[C@H](N)C(=O)N[C@@H](CO)C(=O)N[C@H]2CSSC[C@H](NC(=O)[C@H](CCC(=O)O)NC(=O)[C@H](CCCCN)NC(=O)[C@H](CC(=O)O)NC(=O)[C@H](CCSC)NC(=O)[C@H](CC(C)C)NC(=O)[C@H](CO)NC(=O)[C@H](CO)NC2=O)C(=O)N[C@@H](C(C)C)C(=O)N[C@@H](Cc2ccc(O)cc2)C(=O)N[C@@H](Cc2ccccc2)C(=O)N1)C(=O)N[C@H](C(=O)N[C@@H](Cc1c[nH]c2ccccc12)C(=O)O)[C@@H](C)CC` [Example 26, [Leu^18]-ET-1] (H-CSCSSLMDKECVYFCHLLIIW-OH; disulfide 1-15, 3-11), in experiment [2], the “Receptor binding activity (Relative potency)” value was determined as 2.4. In experiment [1], the “Constrictor activity (Relative potency)” value is < 0.1 and the “Maximum Constriction (% 60 mM KCl)” value came out at 0 % 60 mM KCl.

For `CC[C@H](C)[C@H](NC(=O)[C@@H](NC(=O)[C@H](CC(C)C)NC(=O)[C@H](Cc1c[nH]cn1)NC(=O)[C@@H]1CSSC[C@H](N)C(=O)N[C@@H](CO)C(=O)N[C@H]2CSSC[C@H](NC(=O)[C@H](CCC(=O)O)NC(=O)[C@H](CCCCN)NC(=O)[C@H](CC(=O)O)NC(=O)[C@H](CCSC)NC(=O)[C@H](CC(C)C)NC(=O)[C@H](CO)NC(=O)[C@H](CO)NC2=O)C(=O)N[C@@H](C(C)C)C(=O)N[C@@H](Cc2ccc(O)cc2)C(=O)N[C@@H](Cc2ccccc2)C(=O)N1)C(C)C)C(=O)N[C@H](C(=O)N[C@@H](Cc1c[nH]c2ccccc12)C(=O)O)[C@@H](C)CC` [Example 27, [Val^18]-ET-1] (H-CSCSSLMDKECVYFCHLVIIW-OH; disulfide 1-15, 3-11), in experiment [2], the “Receptor binding activity (Relative potency)” value worked out at 3.2. In experiment [1], the “Constrictor activity (Relative potency)” value was < 0.1 and the “Maximum Constriction (% 60 mM KCl)” value is given as 2 % 60 mM KCl.

Values taken from patent US5306808A, “Peptide derivatives having vasodilating activity” (Takeda Chemical Industries, Ltd., priority 1991, dated 1994).
